Experimental findings from EP4592286A1, “MACROCYCLIC NITROGEN-CONTAINING CROWN ETHER COMPOUND AND USE THEREOF AS PROTEIN KINASE INHIBITOR” (Artivila Biopharma, priority 2022, dated 2024) are described below.

For experiment [1], the target named is T1, endogenous phosphorylated LRRK2 (S935) (Homo sapiens, UniProt Q5S007).
T1 construct: Detection of endogenous phosphorylated LRRK2 (S935) in A549 cells; endogenous in cells; host or cells: A549
Put plainly: detection of endogenous phosphorylated LRRK2 (S935) in A549 cells (Western blot). It is filed as cell-based. The note with it: 15 hours; for inhibition at 2 µM / inhibition at 1 µM: LRRK2 (S935) activity in A549 cells, read-out: Inhibition rate; for IC50: A549 cells, Table 11, read-out: IC50 of inhibitory activity on LRRK2 (S935) activity in A549 cells (column head: Inhibition rate). Here is the method: Detection of endogenous phosphorylated LRRK2 (S935) in A549 cells
A549 cells were resuspended in serum-free 1640 medium at a density of 1×10^6 cells/ml, and inoculated into a 6-well plate at 1 ml/well, and cultured at 37°C and 5% CO2 for 6-8 hours. 1 microliter of compound solution in DMSO or DMSO (volume ratio of 0.1%) was added, mixed evenly, and cultivated at 37°C and 5% CO2 for 15 hours. Cells were collected, 50 microliters of RIPA III lysis solution were added to each sample to lyse cells on ice for 15 minutes, centrifuged at 4°C and 13000 rpm for 30 minutes, the supernatant was collected, the protein concentration of cell lysis solution was measured by BCA, and the protein concentrations of all samples were normalized. 5×sample loading buffer were added and kept at 95°C for 10 minutes. The content of phosphorylated S935 of endogenous LRRK2 was detected by Western blot, using antibody against phosphorylated LRRK2 (S935) (Abcam#133450). The signal intensity of phosphorylated LRRK2 (S935) was counted by Image J, the signal of phosphorylated LRRK2 (S935) in a sample was normalized by β-actin, and the data was analyzed.

In experiment [2] the target is LRRK2 (Homo sapiens, UniProt Q5S007). In words: experiment of inhibiting LRRK2 kinase activity (ADP-Glo method). It is filed as biochemical. Particulars: Table 4. How it is done: The inhibitory effect of the compounds on the activity of LRRK2 kinase was detected by ADP-Glo method. The diluted solutions of the compounds were transfered to a 384-well plate (784075, Greiner), the plate was sealed and centrifuged at a speed of 1000 g for 1 minute. A kinase solution at 2-fold final concentration was prepared with 1×kinase buffer, 2.5 µl of the kinase solution with 2-fold final concentration was added to the wells, the plate was centrifuged at 1000 g for 30 seconds, and left at room temperature for 10 minutes. A mixed solution of ATP and kinase substrate at 2-fold final concentration was prepared with 1×kinase buffer, and 2.5 µL of mixed solution of ATP and substrate at 2-fold final concentration was added to start the reaction. The plate was centrifuged at 1000 g for 30 seconds, sealed and left at room temperature for 2 hours. 4 µL of ADP-Glo reagent was added and incubated at room temperature for 40 minutes; 8 µL kinase detection reagent was added and incubated at room temperature for another 40 minutes. The luminescence signal value was detected on Envision 2104 microplate reader. The conversion inhibition rate%=100-(compound signal value-positive control signal value)/(blank control signal value-positive control signal value)×100.
Sequence of LRRK2 (Q5S007 whole entry): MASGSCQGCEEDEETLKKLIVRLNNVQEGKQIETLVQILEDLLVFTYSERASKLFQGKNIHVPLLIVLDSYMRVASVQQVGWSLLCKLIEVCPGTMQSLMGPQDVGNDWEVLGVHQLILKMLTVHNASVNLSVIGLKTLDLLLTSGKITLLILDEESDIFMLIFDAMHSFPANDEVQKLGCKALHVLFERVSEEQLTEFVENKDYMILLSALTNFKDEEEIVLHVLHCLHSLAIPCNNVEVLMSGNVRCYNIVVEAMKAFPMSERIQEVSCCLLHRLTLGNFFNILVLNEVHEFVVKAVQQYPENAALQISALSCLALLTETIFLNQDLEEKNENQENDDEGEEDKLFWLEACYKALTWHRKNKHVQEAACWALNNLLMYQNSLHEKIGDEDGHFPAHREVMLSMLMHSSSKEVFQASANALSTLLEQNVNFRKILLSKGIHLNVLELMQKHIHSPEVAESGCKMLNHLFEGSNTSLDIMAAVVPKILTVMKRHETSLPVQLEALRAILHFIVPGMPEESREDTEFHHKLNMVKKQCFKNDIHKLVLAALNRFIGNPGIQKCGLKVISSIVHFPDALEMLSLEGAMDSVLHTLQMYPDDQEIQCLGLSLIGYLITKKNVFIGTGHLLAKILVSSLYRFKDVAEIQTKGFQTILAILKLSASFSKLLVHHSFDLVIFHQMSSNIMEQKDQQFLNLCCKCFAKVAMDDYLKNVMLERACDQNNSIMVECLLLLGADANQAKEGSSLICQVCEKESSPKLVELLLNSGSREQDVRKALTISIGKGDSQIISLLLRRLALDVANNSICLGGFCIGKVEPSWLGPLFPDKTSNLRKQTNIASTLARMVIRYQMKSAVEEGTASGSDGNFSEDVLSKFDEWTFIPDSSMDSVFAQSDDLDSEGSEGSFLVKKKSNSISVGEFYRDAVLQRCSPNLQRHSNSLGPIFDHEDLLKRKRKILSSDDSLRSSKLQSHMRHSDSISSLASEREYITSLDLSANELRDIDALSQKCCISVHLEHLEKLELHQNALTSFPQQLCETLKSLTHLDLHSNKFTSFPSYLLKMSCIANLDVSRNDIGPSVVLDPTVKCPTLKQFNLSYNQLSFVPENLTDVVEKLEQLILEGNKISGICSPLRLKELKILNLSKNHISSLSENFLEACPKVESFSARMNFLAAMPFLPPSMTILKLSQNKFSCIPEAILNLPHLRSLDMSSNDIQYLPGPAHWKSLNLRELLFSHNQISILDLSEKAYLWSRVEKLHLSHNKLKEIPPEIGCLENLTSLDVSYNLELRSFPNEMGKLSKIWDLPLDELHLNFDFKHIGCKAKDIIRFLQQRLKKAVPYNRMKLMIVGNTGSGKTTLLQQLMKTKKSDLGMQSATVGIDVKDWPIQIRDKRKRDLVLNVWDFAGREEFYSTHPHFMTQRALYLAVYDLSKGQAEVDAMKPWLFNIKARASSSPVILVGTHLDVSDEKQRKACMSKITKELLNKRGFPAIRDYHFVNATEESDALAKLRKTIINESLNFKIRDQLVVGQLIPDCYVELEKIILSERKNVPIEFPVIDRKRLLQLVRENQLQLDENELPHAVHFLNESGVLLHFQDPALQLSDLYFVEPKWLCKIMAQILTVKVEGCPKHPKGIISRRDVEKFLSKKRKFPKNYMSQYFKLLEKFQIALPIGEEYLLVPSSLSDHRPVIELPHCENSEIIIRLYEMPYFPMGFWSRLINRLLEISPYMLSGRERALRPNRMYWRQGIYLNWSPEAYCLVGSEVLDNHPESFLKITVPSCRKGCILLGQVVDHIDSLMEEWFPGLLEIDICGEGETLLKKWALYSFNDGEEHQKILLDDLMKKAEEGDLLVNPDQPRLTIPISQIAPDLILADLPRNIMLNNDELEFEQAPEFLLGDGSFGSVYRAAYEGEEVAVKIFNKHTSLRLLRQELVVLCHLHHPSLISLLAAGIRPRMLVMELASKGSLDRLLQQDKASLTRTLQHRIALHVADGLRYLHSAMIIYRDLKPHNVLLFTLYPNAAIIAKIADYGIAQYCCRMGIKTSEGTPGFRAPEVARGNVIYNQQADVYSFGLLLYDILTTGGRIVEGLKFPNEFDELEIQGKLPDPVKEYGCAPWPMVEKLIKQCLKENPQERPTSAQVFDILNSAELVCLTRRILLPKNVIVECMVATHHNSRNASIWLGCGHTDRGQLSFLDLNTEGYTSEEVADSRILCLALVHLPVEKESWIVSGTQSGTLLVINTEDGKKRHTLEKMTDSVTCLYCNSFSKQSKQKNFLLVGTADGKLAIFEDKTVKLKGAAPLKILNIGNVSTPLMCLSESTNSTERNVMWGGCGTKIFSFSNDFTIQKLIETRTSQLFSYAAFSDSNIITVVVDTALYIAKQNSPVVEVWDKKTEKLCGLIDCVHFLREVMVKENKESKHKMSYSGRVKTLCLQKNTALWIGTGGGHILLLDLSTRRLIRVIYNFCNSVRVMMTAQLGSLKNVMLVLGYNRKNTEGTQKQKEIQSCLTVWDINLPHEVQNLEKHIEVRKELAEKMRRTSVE
The IC50 was calculated with GraphPad 6.0 and the dose-responsive curve of the compounds was plotted as follows: y=Bottom+(Top-Bottom)/(1+10^((logic50-x)×hillslope)), where x was logarithm of inhibitor concentration; and y was % inhibition rate.
Background: ADP-Glo first removes unused ATP, then detects ADP through luciferase.

T1 sequence (Q5S007 whole entry): as above

For orientation: inhibition means the percentage by which the read-out fell short of the control. Consider `CN1CCOCCOc2ccc(Nc3ncc(C(F)(F)F)c(NC[C@@H]4CCO4)n3)cc2OCC1` [Example 88, (S)-N^2-(7-methyl-2,3,6,7,8,9-hexahydro-5H-benzo[b][1,4,7]trioxa[10]azacyclododecan-12-yl)-N^4-(oxetan-2-ylmethyl)-5-(trifluoromethyl)pyrimidin-2,4-diamine], for which the inhibition at 2 µM in experiment [1] is > 80%.

By IC50 is commonly meant the point on the concentration scale where inhibition reaches its midpoint. On to `CN1CCOc2ccc(Nc3ncc(C(F)(F)F)c(NC[C@@H]4CCO4)n3)cc2OCC1` [Example 92, (S)-N^2-(4-methyl-3,4,5,6-tetrahydro-2H-benzo[b][1,4,7]dioxazolin-9-yl)-N^4-(oxetan-2-ylmethyl)-5-(trifluoromethyl)pyrimidin-2,4-diamine], for which the IC50 in experiment [2] is < 100 nM. In addition, the inhibition at 2 µM in experiment [1] lay in the range of 40 to 79%.

Consider `CN1CCOCCOc2ccc(Nc3ncc(F)c(O[C@H]4CC[C@@](C)(O)CC4)n3)cc2OCC1` [Example 103, (1s,4s)-4-((5-fluoro-2-((7-methyl-2,3,6,7,8,9-hexahydro-5H-benzo[b][1,4,7]trioxa[10]azacyclododecan-12-yl)amino)pyrimidin-4-yl)oxy)-1-methylcyclohexan-1-ol], for which the IC50 is 100 to 500 nM in experiment [2] and < 100 nM in experiment [1].

Regarding `CN1CCOc2ccc(Nc3ncc(C(F)(F)F)c(O[C@H]4CC[C@@](C)(O)CC4)n3)cc2OCC1` [Example 93, (1s,4s)-1-methyl-4-((2-((4-methyl-3,4,5,6-tetrahydro-2H-benzo[b][1,4,7]dioxazolin-9-yl)amino)-5-(trifluoromethyl)pyrimidin-4-yl)oxy)cyclohexan-1-ol], the IC50 was < 100 nM in experiment [2] and 100 to 500 nM in experiment [1].

In the case of `CN1CCOc2ccc(Nc3ncc(C(F)(F)F)c(NCC(C)(C)O)n3)cc2OCC1` [Example 8, 2-methyl-1-((2-((4-methyl-3,4,5,6-tetrahydro-2H-benzo[b][1,4,7]dioxazolin-9-yl)amino)-5-(trifluoromethyl)pyrimidin-4-yl)amino)propan-2-ol], the inhibition at 2 µM in experiment [1] was > 80%.

With `Cc1cnc(Nc2ccc3c(c2)OCCN(C)CCO3)nc1O[C@H]1CC[C@@](C)(O)CC1` [Example 101, (1s,4s)-1-methyl-4-((5-methyl-2-((4-methyl-3,4,5,6-tetrahydro-2H-benzo[b][1,4,7]dioxazolin-9-yl)amino)pyrimidin-4-yl)oxy)cyclohexan-1-ol], in experiment [1], the inhibition at 1 µM fell in the range of 40 to 79%.

In the case of `CN1CCOc2ccc(Nc3ncc(C(F)(F)F)c(Nc4ccccc4)n3)cc2OCC1` [Example 91, N^2-(4-methyl-3,4,5,6-tetrahydro-2H-benzo[b][1,4,7]dioxazolin-9-yl)-N^4-phenyl-5-(trifluoromethyl)pyrimidin-2,4-diamine], the concentration for half-maximal inhibition (IC50) in experiment [2] and in experiment [1] was < 100 nM in each case.

With `CN1CCOc2ccc(Nc3ncc(C(F)(F)F)c(NCC4(C#N)CC4)n3)cc2OCC1` [Example 96, 1-(((2-((4-methyl-3,4,5,6-tetrahydro-2H-benzo[b][1,4,7]dioxazolin-9-yl)amino)-5-(trifluoromethyl)pyrimidin-4-yl)amino)methyl)cyclopropan-1-carbonitrile], the inhibition at 1 µM in experiment [1] was > 0%.

As for `CN1CCOCCOc2ccc(Nc3nc(NCC(C)(C)O)c4cc[nH]c4n3)cc2OCC1` [Example 90, 2-methyl-1-((2-((7-methyl-2,3,6,7,8,9-hexahydro-5H-benzo[b][1,4,7]trioxa[10]azacyclododecan-12-yl)amino)-7H-pyrrolo[2,3-d]pyrimidin-4-yl)amino)propan-2-ol], in experiment [1], the inhibition at 2 µM is > 80%.

As for `COCc1ccccc1Nc1nc(Nc2ccc3c(c2)OCCN(C)CCO3)ncc1C(F)(F)F` [Example 94, N^4-(2-(methoxymethyl)phenyl)-N^2-(4-methyl-3,4,5,6-tetrahydro-2H-benzo[b][1,4,7]dioxazolin-9-yl)-5-(trifluoromethyl)pyrimidin-2,4-diamine], the inhibition at 1 µM in experiment [1] was > 0%.

The compound `CN1CCOc2ccc(Nc3ncc(F)c(O[C@H]4CC[C@@](C)(O)CC4)n3)cc2OCC1` [Example 100, (1s,4s)-4-((5-fluoro-2-((4-methyl-3,4,5,6-tetrahydro-2H-benzo[b][1,4,7]dioxazolin-9-yl)amino)pyrimidin-4-yl)oxy)-1-methylcyclohexan-1-ol] displayed an IC50 in experiment [2] of 100 to 500 nM. Besides, the inhibition at 1 µM in experiment [1] was in the range of 40 to 79%.

For `CN1CCOc2ccc(Nc3ncc(Cl)c(O[C@H]4CC[C@@](C)(O)CC4)n3)cc2OCC1` [Example 102, (1s,4s)-4-((5-chloro-2-((4-methyl-3,4,5,6-tetrahydro-2H-benzo[b][1,4,7]dioxazolin-9-yl)amino)pyrimidin-4-yl)oxy)-1-methylcyclohexan-1-ol], the IC50 in experiment [2] was < 100 nM. For the same compound, in experiment [1], the inhibition at 1 µM was > 0%.

For the compound `CN1CCOCCOc2ccc(Nc3ncc(C(F)(F)F)c(NCCS(C)(=O)=O)n3)cc2OCC1` [Example 89, N^2-(7-methyl-2,3,6,7,8,9-hexahydro-5H-benzo[b][1,4,7]trioxa[10]azacyclododecyl-12-yl)-N^4-(2-(methylsulfonyl)ethyl)-5-(trifluoromethyl)pyrimidin-2,4-diamine], the inhibition at 2 µM in experiment [1] lay in the range of 40 to 79%.
